Assay results taken from patent EP1301165B1, “USE OF AN ALLOMELANIN FOR THE TREATMENT OF INFLAMMATION OR IRRITANCY CAUSED BY DHA AND/OR A SURFACTANT” (Croda Chemicals International Limited, priority 2000, dated 2002).
One block for each compound: values may come before it.

Tests used:
[1] = Fragrance stabilisation test (eau de toilette, daily 37°C / 4°C / sunlight cycle for 7 days, aroma assessed); details: daily cycle repeated for 7 days
Description: To test the stability of a fragrance in the form of an eau de toilette ("EDT"), we use aliquots of the EDT to which are added two or more concentrations of our melanin ("EDT'') and, as reference examples, two concentrations of BHT (butyrated hydroxytoluene, a known antioxidant used in cosmetics). A further aliquot of the original eau de toilette is used as a control. Test samples are made in clear glass bottles that are half filled with the test samples. This is to allow some penetration of UV light and sufficient gas in the headspace to allow oxidative deterioration of the fragrance to occur.
Samples are stored at 37°C overnight, then are cooled to 4°C and then allowed to stand in direct sunlight, for the rest of the day, being returned to 37°C. In addition bottles are opened before and after the 37°C incubation. This daily cycle is repeated for 7 days and the aromas of each assessed.

Water solubility = assay type: physicochemical
Text: In contrast, conventional melanins are virtually insoluble. Our melanin derived from caffeic acid has a solubility of about 220g/l. Since caffeic acid has a solubility of below 1g/l, and polymerisation generally leads to a reduction in solubility, this is quite remarkable.

skin = test: Surfactant sensitivity: skin irritation by 24 hour SLES patch, skin colour by Chroma Meter; assay type: in vivo, human
Description: The effectiveness of our melanin in reducing skin irritation due to a surfactant was investigated. Two human subjects were used. The effect of applying to skin for 24 hours a patch containing a 70% solution of sodium lauryl ether sulphate ('SLES') was compared with the effect of applying an identical patch also containing 0.3% of our melanin ('M'). The colour of the treated skin was monitored for several days using a Chroma Meter. The changes in degrees of redness are tabulated below.

fragrance stability (aroma) [1]: markedly superior to the control
Compound: Cc1cc(C(C)(C)C)c(O)c(C(C)(C)C)c1 [BHT, butyrated hydroxytoluene]

solubility (Water solubility): < 1000 µg/mL
Compound: O=C(O)/C=C/c1ccc(O)c(O)c1 [caffeic acid]

Compound: sodium lauryl ether sulphate [SLES]
Redness Change (skin; Subject 1, Day 1, patch applied for 24 hours): +6.3 | Redness Change (skin; Subject 1, Day 2): +4.2 | Redness Change (skin; Subject 1, Day 6): +0.3 | Redness Change (skin; Subject 2, Day 1, patch applied for 24 hours): +3.5 | Redness Change (skin; Subject 2, Day 2): +2.3 | Redness Change (skin; Subject 2, Day 7): +0.6
